# According to patent US10092551B2, “Spiro-thiazolones” (Hoffmann-La Roche Inc., priority 2014, dated 2018):
# Target: human V1a receptor (Homo sapiens (Human), UniProt P37288)
# Assay: human V1a receptor binding studies (3H-Vasopressin, SPA beads)
# Details: membranes of HEK293 cells transiently transfected with human V1a receptor, Ki by Cheng-Prussoff
# Procedure: The human V1a receptor was cloned by RT-PCR from total human liver RNA. The coding sequence was subcloned in an expression vector after sequencing to confirm the identity of the amplified sequence. […] Cell membranes were prepared from HEK293 cells transiently transfected with the expression vector and grown in 20 liter fermenters with the following protocol.
# 50 g of cells are re-suspended in 30 ml freshly prepared ice cold Lysis buffer (50 mM HEPES, 1 mM EDTA, 10 mM MgCl2 adjusted to pH=7.4+complete cocktail of protease inhibitor (Roche Diagnostics)). Homogenized with Polytron for 1 min and sonicated on ice for 2×2 minutes at 80% intensity (Vibracell sonicator). The preparation is centrifuged 20 min at 500 g at 4° C., the pellet is discarded and the supernatant centrifuged 1 hour at 43,000 g at 4° C. (19,000 rpm). The pellet is re-suspended in 12.5 ml Lysis buffer+12.5 ml Sucrose 20% and homogenized using a Polytron for 1-2 min. The protein concentration is determined by the Bradford method and aliquots are stored at −80° C. until use. For binding studies 60 mg Yttrium silicate SPA beads (Amersham) are mixed with an aliquot of membrane in binding buffer (50 mM Tris, 120 mM NaCl, 5 mM KCl, 2 mM CaCl2, 10 mM MgCl2) for 15 minutes with mixing. 50 μl of bead/membrane mixture is then added to each well of a 96 well plate, followed by 50 μl of 4 nM 3H-Vasopressin (American Radiolabeled Chemicals). For total binding measurement 100 μl of binding buffer are added to the respective wells, for non-specific binding 100 μl of 8.4 mM cold vasopressin and for compound testing 100 μl of a serial dilution of each compound in 2% DMSO. The plate is incubated 1 h at room temperature, centrifuged 1 min at 1000 g and counted on a Packard Top-Count. Non-specific binding counts are subtracted from each well and data is normalized to the maximum specific binding set at 100%. To calculate an IC 50 the curve is fitted using a non-linear regression model (XLfit) and the Ki is calculated using the Cheng-Prussoff equation.
# Sequence of human V1a receptor (P37288 whole entry): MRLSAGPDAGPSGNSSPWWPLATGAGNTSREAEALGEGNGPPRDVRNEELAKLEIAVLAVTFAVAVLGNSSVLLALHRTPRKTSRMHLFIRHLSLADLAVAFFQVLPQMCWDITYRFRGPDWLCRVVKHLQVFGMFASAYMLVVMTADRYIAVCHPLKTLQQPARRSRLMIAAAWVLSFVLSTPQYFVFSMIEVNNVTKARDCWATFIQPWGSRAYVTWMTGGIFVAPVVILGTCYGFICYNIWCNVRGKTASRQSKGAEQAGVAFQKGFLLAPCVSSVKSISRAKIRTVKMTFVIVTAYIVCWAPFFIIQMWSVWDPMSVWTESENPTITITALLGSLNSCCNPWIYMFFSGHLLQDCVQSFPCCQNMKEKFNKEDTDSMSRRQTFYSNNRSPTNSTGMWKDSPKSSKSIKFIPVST
row,Structure (SMILES),pKi hV1a
1,"O=C1N=C(N2CCC3(CC2)OCc2ccccc23)S/C1=C1/CCCc2c(Cl)cccc21 [Example 19, (5E/Z)-5-(5-chloro-3,4-dihydronaphthalen-1(2H)-ylidene)-2-(1′H,3H-spiro[2-benzofuran-1,4′-piperidin]-1′-yl)-1,3-thiazol-4(5H)-one]",7.7
2,"CC(C)(C)[Si](C)(C)OC/C(=C1\SC(N2CCC3(CC2)OC(=O)c2ccccc23)=NC1=O)c1ccccc1 [Example 141, 1′-[(5Z)-5-(2-{[tert-butyl(dimethyl)silyl]oxy}-1-phenylethylidene)-4-oxo-4,5-dihydro-1,3-thiazol-2-yl]-3H-spiro[2-benzofuran-1,4′-piperidin]-3-one]",7.6
3,"C/C(=C1/SC(N2CCC3(CC2)OCc2ccccc23)=NC1=O)c1ccccc1F [Example 40, (5E/Z)-5-[1-(2-fluorophenyl)ethylidene]-2-(1′H,3H-spiro[2-benzofuran-1,4′-piperidin]-1′-yl)-1,3-thiazol-4(5H)-one]",8.9
4,"O=C1N=C(N2CCC3(CC2)OCc2ccccc23)S/C1=C1/CCCc2cc(Cl)ccc21 [Example 11, (5E/Z)-5-(6-chloro-3,4-dihydronaphthalen-1(2H)-ylidene)-2-(1′H,3H-spiro[2-benzofuran-1,4′-piperidin]-1′-yl)-1,3-thiazol-4(5H)-one]",8.4
5,"C/C(=C1/SC(N2CCC3(CC2)OC(=O)c2ccccc23)=NC1=O)c1ccc(Cl)nc1 [Example 137, 1′-{(5Z)-5-[1-(6-chloropyridin-3-yl)ethylidene]-4-oxo-4,5-dihydro-1,3-thiazol-2-yl}-3H-spiro[2-benzofuran-1,4′-piperidin]-3-one]",8.0
6,"C/C(=C1/SC(N2CCC3(CC2)OCc2ccccc23)=NC1=O)c1ccc(Cl)cc1 [Example 26, (5Z)-5-[1-(4-chlorophenyl)ethylidene]-2-(1′H,3H-spiro[2-benzofuran-1,4′-piperidin]-1′-yl)-1,3-thiazol-4(5H)-one]",9.2
7,"O=C1N=C(N2CCC3(CC2)OCc2ccccc23)S/C1=C1\C=CCC1 [Example 128, (5Z)-5-(cyclopent-2-en-1-ylidene)-2-(1′H,3H-spiro[2-benzofuran-1,4′-piperidin]-1′-yl)-1,3-thiazol-4(5H)-one]",7.6
8,"[2H]C([2H])([2H])/C(=C1\SC(N2CCC3(CC2)OCc2ccccc23)=NC1=O)c1ccccc1 [Example 174, (5E)-5-[1-phenyl(^2H3)ethylidene]-2-(1′H,3H-spiro[2-benzofuran-1,4′-piperidin]-1′-yl)-1,3-thiazol-4(5H)-one]",8.7
9,"CC(C)(C)[Si](C)(C)OC/C(=C1/SC(N2CCC3(CC2)OC(=O)c2ccccc23)=NC1=O)c1ccccc1 [Example 140, 1′-[(5E)-5-(2-{[tert-butyl(dimethyl)silyl]oxy}-1-phenylethylidene)-4-oxo-4,5-dihydro-1,3-thiazol-2-yl]-3H-spiro[2-benzofuran-1,4′-piperidin]-3-one]",8.9
10,"O=C1N=C(N2CCC3(CC2)OC(=O)c2ccccc23)SC1=C(C1CC1)C1CC1 [Example 139, 1′-[5-(dicyclopropylmethylidene)-4-oxo-4,5-dihydro-1,3-thiazol-2-yl]-3H-spiro[2-benzofuran-1,4′-piperidin]-3-one]",8.5
11,"CC/C(=C1/SC(N2CCC3(CC2)OCc2ccccc23)=NC1=O)c1ccncc1 [Example 31, (5Z)-5-[1-(pyridin-4-yl)propylidene]-2-(1′H,3H-spiro[2-benzofuran-1,4′-piperidin]-1′-yl)-1,3-thiazol-4(5H)-one]",8.4
12,"O=C1N=C(N2CCC3(CC2)OCc2ccccc23)SC1=C(C(F)(F)F)C(F)(F)F [Example 111, 5-(1,1,1,3,3,3-hexafluoropropan-2-ylidene)-2-(1′H,3H-spiro[2-benzofuran-1,4′-piperidin]-1′-yl)-1,3-thiazol-4(5H)-one]",7.5
13,"CC/C(=C1/SC(N2CCC3(CC2)OCc2ccccc23)=NC1=O)c1cc(C)on1 [Example 64, (5E/Z)-5-[1-(5-methyl-1,2-oxazol-3-yl)propylidene]-2-(1′H,3H-spiro[2-benzofuran-1,4′-piperidin]-1′-yl)-1,3-thiazol-4(5H)-one]",8.6
14,"C/C(=C1/SC(N2CCC3(CC2)OC(=O)c2ccccc23)=NC1=O)c1ccc(C)nc1 [Example 135, 1′-{(5Z)-5-[1-(6-methylpyridin-3-yl)ethylidene]-4-oxo-4,5-dihydro-1,3-thiazol-2-yl}-3H-spiro[2-benzofuran-1,4′-piperidin]-3-one]",7.9
15,"[2H]C([2H])([2H])/C(=C1\SC(N2CCC3(CC2)OCc2ccccc23)=NC1=O)c1ccc(C)nc1 [Example 170, (5E)-5-[1-(6-methylpyridin-3-yl)(^2H3)ethylidene]-2-(1′H,3H-spiro[2-benzofuran-1,4′-piperidin]-1′-yl)-1,3-thiazol-4(5H)-one]",8.0
16,"O=C1N=C(N2CCC3(CC2)OCc2ccccc23)S/C1=C1/CCCCc2ccccc21 [Example 47, (5Z)-2-(1′H,3H-spiro[2-benzofuran-1,4′-piperidin]-1′-yl)-5-(6,7,8,9-tetrahydro-5H-benzo[7]annulen-5-ylidene)-1,3-thiazol-4(5H)-one]",9.3

# Other lines, results leading:
row,pKi hV1a,Structure (SMILES)
1,7.0,"C/C(CS(C)(=O)=O)=C1/SC(N2CCC3(CC2)OCc2ccccc23)=NC1=O [Example 121, (5E/Z)-5-[1-(methylsulfonyl)propan-2-ylidene]-2-(1′H,3H-spiro[2-benzofuran-1,4′-piperidin]-1′-yl)-1,3-thiazol-4(5H)-one]"
2,8.6,"C/C(=C1/SC(N2CCC3(CC2)OCc2ccccc23)=NC1=O)c1sc(C)nc1C [Example 112, (5E/Z)-5-[1-(2,4-dimethyl-1,3-thiazol-5-yl)ethylidene]-2-(1′H,3H-spiro[2-benzofuran-1,4′-piperidin]-1′-yl)-1,3-thiazol-4(5H)-one]"
3,7.7,"C/C(=C1\SC(N2CCC3(CC2)OCc2ccccc23)=NC1=O)c1cccnc1Cl [Example 84, (5E)-5-[1-(2-chloropyridin-3-yl)ethylidene]-2-(1′H,3H-spiro[2-benzofuran-1,4′-piperidin]-1′-yl)-1,3-thiazol-4(5H)-one]"
4,6.6,"C/C(=C1/SC(N2CCC3(CC2)OCc2ccccc23)=NC1=O)c1nc[nH]c1C [Example 109, (5E/Z)-5-[1-(5-methyl-1H-1-imidazol-4-yl)ethylidene]-2-(1′H,3H-spiro[2-benzofuran-1,4′-piperidin]-1′-yl)-1,3-thiazol-4(5H)-one]"
5,8.7,"C/C(=C1/SC(N2CCC3(CC2)OCc2ccccc23)=NC1=O)C1CCCCC1 [Example 29, (5Z)-5-(1-cyclohexylethylidene)-2-(1′H,3H-spiro[2-benzofuran-1,4′-piperidin]-1′-yl)-1,3-thiazol-4(5H)-one]"
6,7.3,"C/C(=C1\SC(N2CCC3(CC2)OCc2ccccc23)=NC1=O)c1c(C)noc1C [Example 106, (5E)-5-[1-(3,5-dimethyl-1,2-oxazol-4-yl)ethylidene]-2-(1′H,3H-spiro[2-benzofuran-1,4′-piperidin]-1′-yl)-1,3-thiazol-4(5H)-one]"
7,9.2,"C/C(=C1/SC(N2CCC3(CC2)OCc2ccccc23)=NC1=O)c1ccccc1 [Example 151, (5Z)-5-(1-phenylethylidene)-2-(1′H,3H-spiro[2-benzofuran-1,4′-piperidin]-1′-yl)-1,3-thiazol-4(5H)-one]"
8,8.6,"C/C(=C1/SC(N2CCC3(CC2)OCc2ccccc23)=NC1=O)c1ccnc(Cl)c1 [Example 48, (5E/Z)-5-[1-(2-chloropyridin-4-yl)ethylidene]-2-(1′H,3H-spiro[2-benzofuran-1,4′-piperidin]-1′-yl)-1,3-thiazol-4(5H)-one]"
9,7.6,"O=C1N=C(N2CCC3(CC2)OCc2ccccc23)SC1=C(C1CCCC1)C1CCCC1 [Example 118, 5-(dicyclopentylmethylidene)-2-(1′H,3H-spiro[2-benzofuran-1,4′-piperidin]-1′-yl)-1,3-thiazol-4(5H)-one]"
10,8.5,"C/C(=C1/SC(N2CCC3(CC2)OCc2ccccc23)=NC1=O)c1ccccc1 [Example 16, (5E/Z)-5-(1-phenylethylidene)-2-(1′H,3H-spiro[2-benzofuran-1,4′-piperidin]-1′-yl)-1,3-thiazol-4(5H)-one]"
11,8.7,"C/C(=C1\SC(N2CCC3(CC2)OCc2ccccc23)=NC1=O)c1ncccc1C [Example 155, (5E)-5-[1-(3-methylpyridin-2-yl)ethylidene]-2-(1′H,3H-spiro[2-benzofuran-1,4′-piperidin]-1′-yl)-1,3-thiazol-4(5H)-one]"
12,6.8,"C/C(=C1/SC(N2CCC3(CC2)OCc2ccccc23)=NC1=O)c1ncc[nH]1 [Example 107, (5Z)-5-[1-(1H-imidazol-2-yl)ethylidene]-2-(1′H,3H-spiro[2-benzofuran-1,4′-piperidin]-1′-yl)-1,3-thiazol-4(5H)-one]"
